Test results reported in patent US5438118A, “HIV protease inhibitors” (SmithKline Beechman Corp., priority 1993, dated 1995).

Molecular target: T1, rHIV protease (Human immunodeficiency virus type 1 group M subtype B, UniProt P03366)
T1 construct: the reaction is initiated with purified 0.01-1 mg HIV protease
Assay: Inhibition of hydrolysis of a peptide substrate by rHIV protease (HPLC, Dixon analysis)
Assay type: biochemical, HIV
Conditions: substrate Ac-Arg-Ala-Ser-Gln-Asn-Tyr-Pro-Val-Val-NH2, MENDT buffer pH 6.0, 37° C.; Ki from Dixon analysis
Protocol: The data in the following table is representative of inhibition produced by these compounds.
A typical assay contains […] MENDT buffer (50 mM Mes (pH 6.0; 2-(N-morpholino)ethanesulfonic acid), 1 mM EDTA, 1 mM dithiothreitol, 200 mM NaCl, 0.1% Triton X100); 2, 3, or 6 mM N-acenyl-L-arginyl-L-alanyl-L-seryl-L-glutaminyl-L-asparaginyl-L-tyrosyl-L-prolyl-L-valyl-L-valinamide (Ac-Arg-Ala-Ser-Gln-Asn-Tyr-Pro-Val-Val-[…]NH2; Km =7 mM); and micromolar and sub-micromolar concentrations of synthetic compounds. Following incubation at 37° C. for several min, the reaction is initiated with purified 0.01-1 mg HIV protease. Reaction mixtures (37° C.) are quenched after 10-20 min with an equal volume of cold 0.6N trichloroacetic acid, and, following centrifugation to remove precipitated material, peptidolysis products are analyzed by reverse phase HPLC (Beckman Ultrasphere ODS, 4.5 mm×[…]; mobile phase; 5-20% acetonitrile/H2 O--0.1% TFA (15 min), 20% acetonitrile/H2 O--0.1% TFA (5 min) at 1.5 mL/min, detection at 220 nm. The elution positions of Ac-Arg-Ala-Ser-Gln-Asn-Tyr-Pro-Val-Val-NH2 (17-18 min) and Ac-Arg-Ala-Ser-Gln-Asn-Tyr (10-11 min) are confirmed with authentic material. Initial rates of Ac-Arg-Ala-Ser-Gln-Asn-Tyr formation are determined from integration of these peaks, and typically, the inhibitory properties of the synthetic compounds are determined from slope/intercept analysis of a plot of 1/v vs. [inhibitor] (Dixon analysis). Ki values resulting from this type of primary analysis are accurate for competitive inhibitors only, and under conditions in which the Michaelis constant of the substrate used is well determined.

SMILES	Ki [µM]
COC(=O)[C@@H](NC(=O)[C@@H](NC(=O)C(C)N1CCC(C(C)NC(=O)[C@H](C)N)=CC(Cc2ccccc2)C1=O)C(C)C)C(C)C (stereo partly drawn) [Example 1, 2-[3-benzyl-5-(1-alanylamino-ethyl)-2,3,6,7-tetrahydro-1H-2-oxo-azepin-1-yl]-1-oxo-propyl-valinyl-valine methyl ester]	100
COC(=O)[C@@H](NC(=O)[C@@H](NC(=O)C(C)N1CCC(C(C)NC(=O)[C@H](C)N)=CC(Cc2ccccc2)C1)C(C)C)C(C)C (stereo partly drawn) [Example 2, 2-[3-benzyl-5-(1-alanylamino-ethyl)-2,3,6,7-tetrahydro-1H-azepin-1-yl]-1-oxo-propyl-valinyl-valine methyl ester]	0.6
COC(=O)[C@@H](NC(=O)[C@@H](NC(=O)C(C)N1CCC(C(C)NC(=O)[C@@H](N)Cc2ccccc2)=CC(Cc2ccccc2)C1)C(C)C)C(C)C (stereo partly drawn) [Example 3, 2-[3-benzyl-5-(1-(phenylalanyl)amino-ethyl)-2,3,6,7-tetrahydro-1H-azepin-1-yl]-1-oxo-propyl-valinyl-valine methyl ester]	3.6
